Literature values, collected in patent publication US12575570B2, “Aqueous composition of Epyrifenacil, Mesotrione and Pyroxasulfone” (Valent U.S.A. LLC, priority 2020, dated 2026).

Question: With `CS(=O)(=O)c1ccc(C(=O)C2C(=O)CCCC2=O)c([N+](=O)[O-])c1` [mesotrione, 2-(4-mesyl-2-nitrobenzoyl)cyclohexane-1,3-dione] as the molecule, how does the water solubility read?
Answer: 160 ppm
